Consider 16 molecules from US20150051257A1, “SULPHONAMIDE DERIVATIVES OF BENZYLAMINE FOR THE TREATMENT OF CNS DISEASES” (ADAMED SP. Z O.O, priority 2012, published 2015).

One data set concerns σ (non-selective). Put plainly: Radioligand binding assay, σ receptors. The note with it: test compound 1×10^−6M; [3H]DTG; rat cerebral cortex. The method, then: (§1) Specific ligand binding to the receptors is defined as the difference between the total binding and the non-specific binding determined in the presence of an excess of unlabelled ligand.
(§2) The results are expressed as a percent of control specific binding ((measured specific binding/control specific binding)×100%) obtained in the presence of the test compounds. The compounds were tested for their affinity to receptors at a concentration of 1×10^−6M.
(§3) Conditions and methodology of in vitro tests are given by reference to the literature in Table 1, and the results of tests for representative compounds are given in Table 2 (dopaminergic receptors D2 and D3), in Table 3 (dopaminergic receptors D1 and D4.4), in Table 4 (serotoninergic receptors 5-HT1A, 5-HT2A, 5-HT6, 5-HT7), in table 5 (serotoninergic receptors 5-HT2C), in Table 6 (sigma o receptors), in Table 7 (adrenergic receptors α1, histaminergic receptors H1 and muscarinic receptors M3), in Table 8 (adrenergic receptors α2C) and in Table 9 (serotonin transporter receptors SERT).

Another data set concerns α1 (non-selective). Nature of the data set: Radioligand binding assay, adrenergic α1 receptors. Particulars: test compound 1×10^−6M; [3H]prazosin; rat cerebral cortex. How it is done: as §1, §2, §3
In data set [1] the target is T1, hERG potassium channels (KCNH2 gene, expressed in CHO cells) (Homo sapiens, UniProt Q12809).
T1 construct: expressed in transfected cells; host or cells: CHO cells
T1 sequence (Q12809 whole entry): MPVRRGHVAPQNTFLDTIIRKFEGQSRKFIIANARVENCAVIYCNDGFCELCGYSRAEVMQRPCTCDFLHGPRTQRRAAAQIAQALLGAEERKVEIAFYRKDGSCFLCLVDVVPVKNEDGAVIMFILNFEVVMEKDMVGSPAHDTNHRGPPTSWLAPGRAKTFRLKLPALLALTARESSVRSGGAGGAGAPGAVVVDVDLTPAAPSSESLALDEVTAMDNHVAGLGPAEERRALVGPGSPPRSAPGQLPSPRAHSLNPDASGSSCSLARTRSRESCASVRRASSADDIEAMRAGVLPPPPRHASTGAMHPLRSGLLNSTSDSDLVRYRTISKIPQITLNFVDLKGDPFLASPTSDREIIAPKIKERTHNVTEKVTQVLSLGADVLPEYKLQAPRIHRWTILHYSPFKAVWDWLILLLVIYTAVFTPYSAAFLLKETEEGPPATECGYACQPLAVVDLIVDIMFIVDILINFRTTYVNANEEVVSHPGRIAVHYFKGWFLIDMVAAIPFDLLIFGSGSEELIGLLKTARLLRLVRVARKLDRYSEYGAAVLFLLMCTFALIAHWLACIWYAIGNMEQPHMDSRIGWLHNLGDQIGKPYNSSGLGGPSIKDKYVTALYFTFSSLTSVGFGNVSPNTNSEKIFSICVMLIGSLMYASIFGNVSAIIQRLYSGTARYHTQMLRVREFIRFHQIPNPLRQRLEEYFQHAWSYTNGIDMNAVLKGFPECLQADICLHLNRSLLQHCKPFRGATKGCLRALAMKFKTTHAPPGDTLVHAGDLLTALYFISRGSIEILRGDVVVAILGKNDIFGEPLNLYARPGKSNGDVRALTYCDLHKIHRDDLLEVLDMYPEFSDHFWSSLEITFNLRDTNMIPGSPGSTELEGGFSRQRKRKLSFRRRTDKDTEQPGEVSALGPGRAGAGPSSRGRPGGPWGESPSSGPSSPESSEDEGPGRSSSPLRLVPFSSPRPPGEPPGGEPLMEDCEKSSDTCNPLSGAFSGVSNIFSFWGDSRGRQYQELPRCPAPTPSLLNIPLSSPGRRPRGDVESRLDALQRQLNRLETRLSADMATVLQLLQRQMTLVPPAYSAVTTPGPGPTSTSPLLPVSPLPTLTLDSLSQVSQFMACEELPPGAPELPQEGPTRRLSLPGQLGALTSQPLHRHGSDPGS
Put plainly: Ability to block hERG potassium channel (electrophysiology, IonWorks Quattro). Particulars: cloned hERG in CHO cells; test pulse +40 mV; concentration not given. Format: cell-based. The method, then:
Ability to Block hERG Potassium Channel Ability to block hERG potassium channels was determined using the electrophysiological method and cloned hERG potassium channels (KCNH2 gene, expressed in CHO cells) as biological material. The effects were evaluated using IonWorks™ Quattro system (MDS-AT).
hERG current was elicited using a pulse pattern with fixed amplitudes (conditioning pre-pulse: −80 mV for 25 ms; test pulse: +40 mV for 80 ms) from a holding potential of 0 mV. hERG current was measured as a difference between the peak current at 1 ms after the test step to +40 mV and the steady-state current at the end of the step to +40 mV.
Data acquisition and analyses were performed using the lonWorks Quattro™ system operation software (version 2.0.2; Molecular Devices Corporation, Union City, Calif.). Data were corrected for leak current.
The hERG block was calculated as: % Block=(1−I TA/IControl)×100%, where IControl and ITA were the currents elicited by the test pulse in control and in the presence of a test compound, respectively.
(In general: The hERG channel carries a current that helps repolarise heart muscle cells.)

Turning to `O=S(=O)(Nc1cccc(CNCCc2ccccc2)c1)c1ccc2ccccc2c1` [Compound 1, N-[3-[(phenylethylamino)methyl]phenyl]naphthalene-2-sulphonamide], in the data set with σ (non-selective), the “σ [%]” value amounted to 83%. In addition, the “α1 [%]” value in the data set on α1 (non-selective) was determined as 26%.
For the molecule `O=S(=O)(Nc1cccc(CNCCc2cccc(Cl)c2)c1)c1ccc2ccccc2c1` [Compound 6, N-[3-[[2-(3-chlorophenyl)ethylamino]methyl]phenyl]naphthalene-2-sulphonamide], in the data set with σ (non-selective), the “σ [%]” value is on record as 73%. For the same molecule, the “α1 [%]” value in the data set on α1 (non-selective) is listed as 53%.
With `Cc1cccc(CCNCc2cccc(NS(=O)(=O)c3ccc4ccccc4c3)c2)c1` [Compound 8, N-[3-[[2-(3-methylphenyl)ethylamino]methyl]phenyl]naphthalene-2-sulphonamide], the “σ [%]” value with σ (non-selective) amounted to 85%. The “α1 [%]” value with α1 (non-selective) was determined as 17%.
As for `COc1ccccc1CCNCc1cccc(NS(=O)(=O)c2ccc3ccccc3c2)c1` [Compound 9, N-[3-[[2-(2-methoxyphenyl)ethylamino]methyl]phenyl]naphthalene-2-sulphonamide], the “α1 [%]” value with α1 (non-selective) is recorded as 56%.
Take `COc1ccccc1OCCNCc1cccc(NS(=O)(=O)c2ccc3ccccc3c2)c1` [Compound 10, N-[3-[[2-(2-methoxyphenoxyl)ethylamino]methyl]phenyl]naphthalene-2-sulphonamide]: the “σ [%]” value with σ (non-selective) is reported as 74%. Moreover, in the data set on α1 (non-selective), the “α1 [%]” value was determined as 20%.
With `COc1cccc(CCNCc2cccc(NS(=O)(=O)c3ccc4ccccc4c3)c2)c1` [Compound 11, N-[3-[[2-(3-methoxyphenyl)ethylamino]methyl]phenyl]naphthalene-2-sulphonamide], in the data set with σ (non-selective), the “σ [%]” value amounted to 76%. The “hERG [%] (% Block)” value in data set [1] was −4%. The “α1 [%]” value in the data set on α1 (non-selective) worked out at 18%.
In the case of `COc1ccc(CCNCc2cccc(NS(=O)(=O)c3ccc4ccccc4c3)c2)cc1` [Compound 14, N-[3-[[2-(4-methoxyphenyl)ethylamino]methyl]phenyl]naphthalene-2-sulphonamide], the “σ [%]” value in the data set on σ (non-selective) is reported as 54%. In the data set with α1 (non-selective), the “α1 [%]” value stood at 13%.
On the same counts, the results for `O=S(=O)(Nc1cccc(CNCCc2cccc(O)c2)c1)c1ccc2ccccc2c1` [Compound 17, N-[3-[[2-(3-hydroxyphenyl)ethylamino]methyl]phenyl]naphthalene-2-sulphonamide] are 71% and 31%.
On the same counts, the results for `O=S(=O)(Nc1cccc(CNCCOc2cccc3c2OCCO3)c1)c1ccc(I)cc1` [Compound 22, N-[3-[[2-(2,3-dihydro-1,4-benzodioxin-5-yloxy)ethylamino]methyl]phenyl]-4-iodobenzenesulphonamide] are 95% and 84%.
In the case of `O=S(=O)(Nc1cccc(CNCCOc2cccc3c2OCCO3)c1)c1cccc2ccccc12` [Compound 35, N-[3-[[2-(2,3-dihydro-1,4-benzodioxin-5-yloxy)ethylamino]methyl]phenyl]naphthalene-1-sulphonamide], the “hERG [%] (% Block)” value in data set [1] is −1%.
`O=S(=O)(Nc1cccc(CNCCOc2cccc3c2OCCO3)c1)c1ccc2ccccc2c1` [Compound 36, N-[3-[[2-(2,3-dihydro-1,4-benzodioxin-5-yloxy)ethylamino]methyl]phenyl]naphthalene-2-sulphonamide]: the “hERG [%] (% Block)” value in data set [1] is listed as 1%.
`O=S(=O)(Nc1cccc(CNCCOc2cccc3c2OCCO3)c1)c1csc2ccccc12` [Compound 43, N-[3-[[2-(2,3-dihydro-1,4-benzodioxin-5-yloxy)ethylamino]methyl]phenyl]benzothiophene-3-sulphonamide]: in data set [1], the “hERG [%] (% Block)” value was determined as 10%.
Take `Cc1cccc(S(=O)(=O)Nc2cccc(CNCCOc3cccc4[nH]ccc34)c2)c1` [Compound 49, N-[3-[[2-(1H-indol-4-yloxy)ethylamino]methyl]phenyl]-3-methyl-benzenesulphonamide]: the “σ [%]” value with σ (non-selective) is 79%. The “hERG [%] (% Block)” value in data set [1] was found to be 2%. Further, the “α1 [%]” value in the data set on α1 (non-selective) amounted to 59%.
Take `O=S(=O)(Nc1cccc(CNCCOc2cccc3[nH]ccc23)c1)c1cccc2ccccc12` [Compound 51, N-[3-[[2-(1H-indol-4-yloxy)ethylamino]methyl]phenyl]naphthalene-1-sulphonamide]: the “σ [%]” value in the data set with σ (non-selective) was found to be 76%. For the same molecule, in data set [1], the “hERG [%] (% Block)” value is reported as 1%. Further, the “α1 [%]” value in the data set on α1 (non-selective) was 34%.
On the same counts, the results for `O=S(=O)(Nc1cccc(CNCCOc2cccc3[nH]ccc23)c1)c1ccc2ccccc2c1` [Compound 52, N-[3-[[2-(1H-indol-4-yloxy)ethylamino]methyl]phenyl]naphthalene-2-sulphonamide] are 79%, 2% and 41%.
Consider `CN(CCCc1noc2cc(F)ccc12)Cc1cccc(NS(=O)(=O)c2ccc(I)cc2)c1` [Compound 68, N-[3-[[3-(6-fluoro-1,2-benzoxazol-3-yl)propylmethylamino]methyl]phenyl]-4-iodobenzenesulphonamide], for which, in the data set on σ (non-selective), the “σ [%]” value amounted to 73%. Moreover, the “α1 [%]” value with α1 (non-selective) is listed as 84%.
